Results: patent US9289412B2, “Role of limonoid compounds as neuroprotective agents” (The Johns Hopkins University, priority 2006, dated 2016)
Read-outs that look alike come from different tables or passages of the source.

Tests used:
[1] = system: rat mixed hippocampal cultures; assay: 3-NP neurotoxicity assay, MTT viability, rat mixed hippocampal cultures; type: cell-based; details: 1 h preincubation; for inhibition at 10 µM: Rattus norvegicus; for inhibition at 10 µM / % Protection: test concentration (10 μM)
Description: For example, a cell viability assay can be used in a preliminary screen on a large series of compounds each of which is tested at a fixed concentration. In some embodiments, mixed hippocampal cell cultures are prepared as described in, e.g., Haughey et al. (1999), J Neurochem, 73(4):1363-1374, and Haughey et al (2004), J Neurosci, 24(1):257-268. Subsequently, the cultures are pretreated for one hour in the presence of a candidate neuroprotective agent and then incubated with a cytotoxic agent for about 18 hours. Examples of cytotoxic agents include, but are not limited to, oxidative stressors (e.g., 3-nitropropionic acid (3-NP) or H2O2), excitatory amino acids (e.g., kainate), or neurotoxic proteins (e.g., Hiv Tat, or Aβ peptides). […] The level of protection (“percent protection”) provided by the test compound at a given test concentration in vitro can be expressed as: […]
A variety of methods for determining cell viability may be used. In some embodiments, cell viability is assessed based on the “MTT” assay method described in Mosmann (1983), J Immunol Methods, 65(1-2):55-63, or a variant thereof. This assay is based on the ability of a mitochondrial dehydrogenase enzyme from viable cells to cleave the tetrazolium rings of the pale yellow MTT and form dark blue formazan crystals, which are trapped in cells and readily quantified by ELISA spectrophotometry.
(§1) We sought to evaluate the protective efficacy of a number of modified terpenoid compounds against the against many different neurotoxins, ranging from the chemotoxic 6-OHDA, NMDA, 3-nitropropionic acid (3-NP), and viral proteins such as Tat and gp120. Thus, we established an in vitro neuroprotection assay using rat mixed hippocampal cultures, in which we evaluated the protective efficacy of neuroprotective compounds disclosed herein. The oxidative stressor 3-NP was used to elicit toxicity in the rat hippocampal cultures to mimic the oxidative damage, reactive oxygen species production and ensuing neurodegeneration resulting from HIV infection. Another measure of neurotoxicity which results from HIV infection was evaluated by exposure of the hippocampal cultures to HIV-1 Tat (Li et al (2005), Neurotox Res, 8(1-2): 119-134).
(§2) Rat mixed hippocamal neuronal cultures were generated from freshly dissected rat hippocampi (embryonic day 18) in neurobasal media containing 5% fetal bovine serum and 2% B27 supplement. The cells were plated into 96 well plates at a density of 4×10^5 cells/mL and routinely used on days 11-14 following culturing. Cell viability was assessed with MTT [3-(4,5-dimethylthiazol-2-yl)-2,5-diphenyltetrazolium bromide] assay. The MTT assay is based on the ability of a mitochondrial dehydrogenase enzyme from viable cells to cleave the tetrazolium rings of the pale yellow MTT and form dark blue formazan crystals. See Mosmann (1983), J Immunol Methods, 65(1-2):55-63. These crystals are largely impermeable to cell membranes, and thus accumulate within healthy cells. The resultant formazan precipitates are solubilized with DMSO and read on a multiwell scanning spectrophotometer (ELISA reader). The number of surviving cells is directly proportional to the level of the formazan product created.
Mixed hippocampal cultures were incubated with 3-NP (0.5-10 mM) for 18 hours and then assessed for viability using an MTT assay.
(§3) Cultures were preincubated with GPI 1046 or Resveratrol for one hour prior to an 18 hour exposure to 3 mM 3-NP. […] The same neuroprotective compounds were evaluated for efficacy against HIV-1 Tat protein toxicity using the same 1 hour preincubation protocol.

[2] = system: hippocampal cultures (HIV-1 Tat toxicity); assay: HIV-1 Tat toxicity assay, MTT viability, mixed hippocampal cultures; type: cell-based, rat; details: Tat 500 nM; 1 h preincubation; GPI 1046 10 μM, Resveratrol 10 μM
Text: as §1, §2, §3

[3] = Table 2, vs 3 mM 3-NP 18 h, read-out: % Protection
[4] = Table 3, 3 mM 3-NP 18 h, read-out: % Protection vs 3-NP

SMILES	inhibition at 10 µM [1, 3] [%]	inhibition at 10 µM [1, 4] [%]	other results
C=C1C2CC[C@@]3(C)[C@H](c4ccoc4)OC(=O)C[C@]13O[C@H]1C[C@@H](OC(C)=O)C(C)(C)[C@H](CC(=O)OC)[C@@]21C [3beta-ACETOXYDEOXYANGOLENSIC ACID, METHYL ESTER]	128	–	–
CC(=O)OC1C=C[C@@]2(C)C(C[C@@H](OC(C)=O)[C@@]3(C)C4=CC(=O)O[C@@H](c5ccoc5)[C@]4(C)CCC23)C1(C)C (stereo partly drawn) [DEOXYGEDUNOL ACETATE]	54	–	–
Oc1ccc(C=Cc2cc(O)cc(O)c2)cc1 [Resveratrol, reference compound]	–	–	protection from oxidative damage elicited by 3-NP, in words (FIG. 4A) ([1]; 3 mM 3-NP 18 h, GPI 1046 1 μM, Resveratrol 25 μM): significantly protected; protection from HIV-1 Tat toxicity, in words (FIG. 4B) [2]: protected hippocampal neurons from Tat toxicity
CC1(C)C2CC(=O)[C@]3(C)C(CC[C@@]4(C)[C@H](c5ccoc5)OC(=O)[C@H]5O[C@]543)[C@@]2(C)C(=O)C[C@H]1O (stereo partly drawn) [1,7-DIDEACETOXY-1,7-DIOXO-3-DEACETYLKHIVORIN]	–	15	% Protection ([1]; Table 2, vs 3 mM 3-NP 18 h): 15%
CCC(C)C(=O)O[C@@H]1C[C@@]2(C)[C@H](c3ccoc3)OC(=O)CC23OC2(C)O[C@]14[C@]1(C)[C@@H](CC(=O)OC)C5(C)CC1(O)[C@](O)(C5OC(=O)C1(C)OC1C)[C@@H](OC(C)=O)[C@]34O2 (stereo partly drawn) [UTILIN]	–	16	–
CC(=O)OC1CC2C(C)(C)[C@@H](O)CC[C@]2(C)C2CC[C@]3(C)[C@H](c4ccoc4)OC(=O)[C@H]4O[C@]43[C@]12C (stereo partly drawn) [3beta- HYDROXYDEOXODIHYDRO- GEDUNIN, 3beta-HYDROXYDEOXODIHYDROGEDUNIN]	82	–	–
COC(=O)[C@@H]1OC(=O)C2OC23[C@@]1(C)CCC1[C@]2(C)C(CC(=O)[C@]13C)C(C)(C)[C@H](OC(C)=O)C[C@@H]2OC(C)=O (stereo partly drawn) [7-DEACETOXY-7-OXOKHIVORINIC ACID, METHYL ESTER]	–	–	% Protection ([1]; Table 2, vs 3 mM 3-NP 18 h): 42%
COC(=O)C[C@H]1C(C)(C)C(=O)[C@@H]2CC3=C4CC(=O)O[C@@H](c5ccoc5)[C@]4(C)CC[C@@H]3[C@@]1(C)C2=O [MEXICANOLIDE]	–	9	–
CC(=O)OC1CC2C(C)(C)[C@H](OC(C)=O)C[C@H](OC(C)=O)[C@]2(C)C2CC[C@]3(C)C(=CC(=O)O[C@@H]3c3ccoc3)[C@]12C (stereo partly drawn) [DEOXYKHIVORIN]	36	36	–
CC(=O)O[C@H]1CC[C@@]2(C)C(C[C@H](OC(C)=O)[C@@]3(C)C4=CC(=O)OC(c5ccoc5)[C@]4(C)CCC23)C1(C)C (stereo partly drawn) [3beta,7beta-DIACETOXYDEOXODEACETOXYDEOXYDIHYDROGEDUNIN]	61	–	–
CC(=O)O[C@@H]1CC[C@@]2(C)C(C[C@@H](OC(C)=O)[C@@]3(C)C4=CC(=O)O[C@@H](c5ccoc5)[C@]4(C)CCC23)C1(C)C (stereo partly drawn) [3alpha- ACETOXYDIHYDRODEOXY- GEDUNIN, 3alpha-ACETOXYDIHYDRODEOXYGEDUNIN]	151	–	–
CC(=O)O[C@@H]1CC2C(C)(C)[C@H](O)C[C@H](O)[C@]2(C)C2CC[C@]3(C)[C@@H](c4ccoc4)OC(=O)[C@H]4O[C@]43[C@@]21C (stereo partly drawn) [1,3-DIDEACETYLKHIVORIN]	129	–	–
